Test results: patent US11077090B2, “Compounds and compositions and uses thereof” (Sunovion Pharmaceuticals Inc., priority 2016, dated 2021)
Where a name gives a salt, the structure may show the parent alone. Read-outs that look alike come from different tables or passages of the source.

System: compound-treated mice
Test: Neuropharmacological assay (SmartCube): behavioral activity signature and minimal effective dose
Assay type: in vivo
Conditions: for minimal effective dose: Mus musculus, ip, MED = dose having 50% or more total activity; for AD: ADHD (probability of activity signature) / AG: analgesic (probability of activity signature) / AX: anxiolytic (probability of activity signature) / CE: cognitive enhancer (probability of activity signature) / DP: anti-depressant (probability of activity signature) / MS: mood stabilizer (probability of activity signature) / PS: anti-psychotic (probability of activity signature) / SD: sedative hypnotic (probability of activity signature) / UN: uncharacterized CNS activity (probability of activity signature): i.p. 15 min before test, most efficacious dose(s)
From the text: Neurosci. 2011 Sep. 9; 5:103 (doi: 10.3389/fnins.2011.00103) (“Roberds”). As reported in Roberds, because psychiatric diseases generally result from disorders of cell-cell communication or circuitry, intact systems are useful in detecting improvement in disease-relevant endpoints. These endpoints are typically behavioral in nature, often requiring human observation and interpretation. To facilitate testing of multiple compounds for behavioral effects relevant to psychiatric disease, PsychoGenics, Inc. (Tarrytown, N.Y., “PGI”) developed SmartCube™, an automated system in which behaviors of compound-treated mice are captured by digital video and analyzed with computer algorithms. (D. Brunner et al., Drug Discov. Today 2002, 7:S107-S112). PGI Analytical Systems uses data from SmartCube™ to compare the behavioral signature of a test compound to a database of behavioral signatures obtained using a large set of diverse reference compounds. (The composition of the database as well as validation of the method is further described in Roberds). In this way, the neuropharmacological effects of a test compound can be predicted by similarity to major classes of compounds, such as antipsychotics, anxiolytics and antidepressants.
The SmartCube™ system produces an activity signature indicating the probability that the activity of the test compound at the administered dose matches a given class of neuropharmacological agents. (See, e.g., Roberds, FIGS. 2 and 3). The test compound is simultaneously compared against multiple classes of agents; thus, a separate probability is generated for each behavioral effect measured (e.g., anxiolytic activity, analgesic activity, etc.). In the table below, these probabilities are reported for each behavioral effect measured as follows:
where LOQ is the limit of quantification.
Provided compounds were dissolved in a mixture of Pharmasolve™ (N-methyl-2-pyrrolidone), polyethylene glycol and propylene glycol, and were injected i.p. 15 min. before the behavioral test. For each compound, injections were administered at 3 different doses. For each behavioral effect measured, results for the most efficacious dose(s) are presented. In the table below, DP: anti-depressant; AX: anxiolytic; SD: sedative hypnotic; PS: anti-psychotic; MS: mood stabilizer; AD: ADHD; CE: cognitive enhancer; AG: analgesic; UN: uncharacterized CNS activity.
The potency of many of the compounds in the table was also determined in the SmartCube™ system. Test compounds were routinely examined at dose levels of 0.3, 1, 3, 10 and 30 mg per kg (mpk), although the dose range was increased or decreased if necessary to obtain a full dose response curve. A compound's minimal effective dose (MED) is a measure of the compounds potency. The MED was defined as the dose (in mpk) having 50% or more total activity in SmartCube.

[1] = read-out: Potency: minimal effective dose (MED)

Compound | minimal effective dose [1] [mg/kg] | AD: ADHD (probability of activity signature) | AG: analgesic (probability of activity signature) | AX: anxiolytic (probability of activity signature) | CE: cognitive enhancer (probability of activity signature) | DP: anti-depressant (probability of activity signature) | MS: mood stabilizer (probability of activity signature) | PS: anti-psychotic (probability of activity signature) | SD: sedative hypnotic (probability of activity signature) | UN: uncharacterized CNS activity (probability of activity signature) | minimal effective dose (read-out: Potency: minimal effective dose (MED), binned) [mg/kg]
C[C@@H]1OCc2ccccc2[C@@H]1N.Cl (relative stereo) [Example 72, cis-3-methylisochroman-4-amine hydrochloride] | 3 to 10 | + (LOQ ≤ + <5%) | ++ (5% ≤ ++ <25%) | ++ (5% ≤ ++ <25%) | ++ (5% ≤ ++ <25%) | ++ (5% ≤ ++ <25%) | + (LOQ ≤ + <5%) | ++ (5% ≤ ++ <25%) | ++ (5% ≤ ++ <25%) | +++ (25% ≤ +++ <50%) | –
C[C@@H]1OCc2ccccc2[C@H]1N.Cl (relative stereo) [Example 73, trans-3-methylisochroman-4-amine hydrochloride] | < 3 | + (LOQ ≤ + <5%) | ++ (5% ≤ ++ <25%) | +++ (25% ≤ +++ <50%) | ++ (5% ≤ ++ <25%) | ++ (5% ≤ ++ <25%) | + (LOQ ≤ + <5%) | ++ (5% ≤ ++ <25%) | + (LOQ ≤ + <5%) | +++ (25% ≤ +++ <50%) | –
Cc1ccc2c(c1)[C@H](N)[C@H](C)COC2.Cl (relative stereo) [Example 74, cis-4,7-dimethyl-1,3,4,5-tetrahydrobenzo [c]oxepin-5-amine hydrochloride] | 10 to 30 | + (LOQ ≤ + <5%) | ++ (5% ≤ ++ <25%) | ++ (5% ≤ ++ <25%) | + (LOQ ≤ + <5%) | ++ (5% ≤ ++ <25%) | + (LOQ ≤ + <5%) | + (LOQ ≤ + <5%) | + (LOQ ≤ + <5%) | +++ (25% ≤ +++ <50%) | –
Cc1ccc2c(c1)[C@H](N)[C@@H](C)COC2.Cl (relative stereo) [Example 75, trans-4,7-dimethyl-1,3,4,5-tetrahydrobenzo [c]oxepin-5-amine hydrochloride] | 10 to 30 | + (LOQ ≤ + <5%) | ++ (5% ≤ ++ <25%) | ++ (5% ≤ ++ <25%) | ++ (5% ≤ ++ <25%) | + (LOQ ≤ + <5%) | + (LOQ ≤ + <5%) | ++ (5% ≤ ++ <25%) | + (LOQ ≤ + <5%) | +++ (25% ≤ +++ <50%) | –
Cc1ccc2c(c1)[C@H](N)[C@H](C)OC2.Cl (relative stereo) [Example 76, cis-3,6-Dimethylisochroman-4-amine hydrochloride] | < 3 | + (LOQ ≤ + <5%) | ++ (5% ≤ ++ <25%) | ++ (5% ≤ ++ <25%) | ++ (5% ≤ ++ <25%) | ++ (5% ≤ ++ <25%) | + (LOQ ≤ + <5%) | ++ (5% ≤ ++ <25%) | + (LOQ ≤ + <5%) | +++ (25% ≤ +++ <50%) | –
Cc1ccc2c(c1)[C@@H](N)[C@H](C)OC2.Cl (relative stereo) [Example 77, trans-3,6-Dimethylisochroman-4-amine hydrochloride] | < 3 | + (LOQ ≤ + <5%) | ++ (5% ≤ ++ <25%) | ++ (5% ≤ ++ <25%) | ++ (5% ≤ ++ <25%) | ++ (5% ≤ ++ <25%) | + (LOQ ≤ + <5%) | ++ (5% ≤ ++ <25%) | + (LOQ ≤ + <5%) | +++ (25% ≤ +++ <50%) | –
CC[C@H]1OCc2ccc(C)cc2[C@@H]1N.Cl (relative stereo) [Example 99, trans-3-Ethyl-6-methylisochroman-4-amine hydrochloride] | 3 to 10 | + (LOQ ≤ + <5%) | ++ (5% ≤ ++ <25%) | +++ (25% ≤ +++ <50%) | ++ (5% ≤ ++ <25%) | ++ (5% ≤ ++ <25%) | + (LOQ ≤ + <5%) | ++ (5% ≤ ++ <25%) | + (LOQ ≤ + <5%) | +++ (25% ≤ +++ <50%) | –
CC[C@@H]1OCc2ccc(C)cc2[C@@H]1N.Cl (relative stereo) [Example 100, cis-3-Ethyl-6-methylisochroman-4-amine hydrochloride] | < 3 | + (LOQ ≤ + <5%) | ++ (5% ≤ ++ <25%) | ++ (5% ≤ ++ <25%) | ++ (5% ≤ ++ <25%) | ++ (5% ≤ ++ <25%) | + (LOQ ≤ + <5%) | +++ (25% ≤ +++ <50%) | ++ (5% ≤ ++ <25%) | +++ (25% ≤ +++ <50%) | –
C[C@@H]1OC[C@H](N)c2ccccc21.Cl (relative stereo) [Example 104, cis-1-Methylisochroman-4-amine hydrochloride] | 3 to 10 | + (LOQ ≤ + <5%) | ++ (5% ≤ ++ <25%) | ++ (5% ≤ ++ <25%) | ++ (5% ≤ ++ <25%) | ++ (5% ≤ ++ <25%) | + (LOQ ≤ + <5%) | ++ (5% ≤ ++ <25%) | ++ (5% ≤ ++ <25%) | +++ (25% ≤ +++ <50%) | –
C[C@@H]1OC[C@@H](N)c2ccccc21.Cl (relative stereo) [Example 105, trans-1-Methylisochroman-4-amine hydrochloride] | 10 to 30 | + (LOQ ≤ + <5%) | ++ (5% ≤ ++ <25%) | ++ (5% ≤ ++ <25%) | ++ (5% ≤ ++ <25%) | ++ (5% ≤ ++ <25%) | ++ (5% ≤ ++ <25%) | ++ (5% ≤ ++ <25%) | + (LOQ ≤ + <5%) | +++ (25% ≤ +++ <50%) | –
CN[C@@H]1CO[C@@H](C)c2ccccc21 (relative stereo) [Example 236, trans-N,1-dimethylisochroman-4-amine hydrochloride] | – | + (LOQ ≤ + <5%) | ++ (5% ≤ ++ <25%) | ++ (5% ≤ ++ <25%) | + (LOQ ≤ + <5%) | ++ (5% ≤ ++ <25%) | + (LOQ ≤ + <5%) | ++ (5% ≤ ++ <25%) | + (LOQ ≤ + <5%) | ++++ (50% ≤ ++++) | 3 to 10
